Where a SMILES comes first, the peptide text is derived from it. Bridges are numbered along the chain shown (N, C = ends). [ ]: non-standard residue; d: D form. Orn = NCCC[C@H](N)C(=O)O; Mpa = O=C(O)CCS
Legend:
[1] = system: GABA(A) channels; experiment: Cell-attached single GABA(A) channel recordings (GABA driving force); type: cell-based, rat; conditions: immature trigeminal neurons; oxytocin 1 μM (control 38.7±2.4 mV)
Procedure: Single GABA channel recordings were performed from the trigeminal sensory neurons prepared as described above. Cell attached patch-clamp recordings were performed using Axopatch 200A (Axon Instruments, Union City, Calif.) and EPC-9 (HEKA Elektronik Dr. Schulze GmbH, Lambrecht/Pfalz, Germany) amplifiers. Patch electrodes were made from borosilicate glass capillaries (GC150F-15, Clark Electromedical Instruments). For recordings of single GABA(A) channels, patch pipette solution contained (in mM): NaCl 120, TEA-Cl 20, KCl 5, 4-aminopyridine 5, CaCl2 0.1, MgCl2 10, glucose 10, Hepes-NaOH 10 buffered to pH 7.2-7.3 and GABA (1-5 μM) was added at the day of experiment from 1 mM frozen stock solution. Driving force for GABA(A) receptor mediated currents was determined from the current-voltage relationships of the currents through single GABA(A) channels single as described earlier (Tyzio et al., 2006) and corrected for an error of 2 mV (Tyzio et al., 2008).
DFGABA was deduced from reversal potential of the currents via GABA(A) channels (Serafini et al., 1995; Tyzio et al., 2006; Tyzio et al., 2008). In control conditions, GABA exerted strongly depolarizing action on the immature trigeminal neurons with DFGABA of 38.7±2.4 mV (n=6). In the presence of oxytocin (1 μM), DFGABA reduced to 17.7±6.7 mV (n=5; P<0.05).

[2] = target: T1, TRPV1 receptors (Rattus norvegicus, UniProt O35433); experiment: Calcium imaging of capsaicin-evoked responses in DRG neurons; type: cell-based
T1 construct: endogenous in cells; host or cells: acutely dissociated primary sensory neurons (trigeminal ganglia per methods; called DRG neurons in results) from P0 rats

[3] = system: newborn rats; experiment: Thermal tail-flick assay (tail immersion, 50° C. water); type: in vivo, rat; conditions: for reversal of the effect of oxytocin receptor blockers on tail-flick: newborn rats; for change in tail withdrawal delay: P0 rats, atosibane 2 μg/kg or SSR126768A 1 μg/kg intraperitoneal; for change in tail-flick delays: P2 rats, oxytocin receptor blockers
Procedure: Pregnant and maternal Wistar rats were housed with a 12-h light-dark-cycle, at 24°±1° C., and food and water ad libitum. The day of birth was considered 0 day old (P0). Experiments on P0 rats (male and female) were performed within two hours after birth.
The pup was held in a box with a hole allowing the tail to protrude from it. The inner surface of the box was covered with an aluminum sheet forming an electrical contact with the rat body. The electrical circuit via the sheet, body, tail and water bath was powered by a 1.5 V battery and its connection and disconnection could be easily detected upon the tail immersion and withdrawal from the water, respectively. Electrical signals were digitized at 1 kHz using a Digidata 1200 and recorded to a computer. The distal tip of the tail was lowered into the water bath (50° C.). Latency to withdrawal was recorded as the “pain” parameter, with a 15-second maximum allowable threshold. After three habituation tests, the latency to withdrawal was determined from the average of three consecutive measurements.
We first tested pain sensitivity in the newborn rats using a thermal tail-flick response. In this test, pain sensitivity is reciprocal to the delay in tail withdrawal from the hot water. […] We studied thermal tail-flick response in two age groups: (i) fresh newborn animals which were examined immediately, within an hour, after birth (P0) and (ii) two day-old rat pups (P2). […] We further studied whether endogenous oxytocin is involved in reduced pain in the newborn rats. To block the action of endogenous oxytocin circulating in the newborn pups we used selective blockers of oxytocin receptors atosibane (2 μg/kg, intraperiotoneal) and SSR126768A (1 μg/kg, intraperiotoneal).

[4] = system: trigeminal sensory neurons; experiment: Calcium imaging of GABA-evoked intracellular calcium increases; type: cell-based, rat; conditions: oxytocin 1 μM; for GABA-evoked intracellular calcium increases: trigeminal neurons from newborn rats, five hours in vitro
Procedure: Trigeminal sensory neurons were obtained from P0 rats. Animals were anesthetized by CO2 and decapitated. Trigeminal ganglia were excised and enzymatically dissociated in F12 medium containing 0.25 mg/ml trypsin, 1 mg/ml collagenase and 0.2 mg/ml DNAse (Sigma) at 37° C. Cells were plated on poly-1-lysine-coated Petri dishes in F12 medium with 10% fetal calf serum and examined 5 hours after plating. For Ca2+ imaging experiments cells were incubated for 40 min at 20-22° C. in physiological solution containing Fluo3 (AM ester cell-permeable compound; 1 μM; Molecular Probes), followed by a 30 min washout period. Fluorescence emission was detected with a Cell-R imaging system (Olympus, Hamburg, Germany). Images were acquired with 200 ms exposure time and single cell responses were analyzed with the Cell-R software. All drugs were applied via fast perfusion system (RDS-200, BioLogic Science Instruments Grenoble, France). Only cells with two stable control GABA transients were taken into analysis. Intracellular Ca2+ transients were expressed as percent amplitude increase (ΔF/F0, where F0 is the baseline fluorescence level and ΔF is the increment over baseline). Ca2+ transient intensity data was exported and then analyzed off-line using Excel and Origin (version 8.0) software. Significance was analyzed by non-parametric Mann-Witney test.
Because analgesic action of oxytocin in adult rats involves modulation of GABAergic control of the primary nociceptive afferents (Condes-Lara et al., 2009), we studied the effect of oxytocin on GABA responses in sensory trigeminal neurons, which detect noxious stimuli and conduct them to the spinal cord. Experiments were performed in primary cultures of trigeminal neurons dissociated from newborn rats and kept for five hours in vitro. In keeping with previous observations (Wang et al., 1994; Reichling et al., 1994), activation of GABA receptors induced robust transient increases of intracellular calcium in trigeminal neurons indicating depolarizing action of GABA and calcium entry into the cells via voltage-gated calcium channels. […]

[5] = system: isolated spinal cord preparations; experiment: Primary afferents depolarization (DR-DRPs) in isolated spinal cord; design: species or system rat
Procedure: Experiments were performed on lumbar (L) spinal cord preparations isolated from neonatal Wistar rats (P0-P1). All efforts were made to reduce the number of animals used and to minimize animal suffering. The experimental setup was the same as described previously (Taccola and Nistri, 2004). The spinal cord was superfused (5 ml min-1) with Krebs solution of the following composition (in mM): NaCl, 113; KCl, 4.5; MgCl2×7H2O, 1; CaCl2, 2; NaH2PO4, 1; NaHCO3, 25; glucose, 11; gassed with 95% O2-5% CO2; pH 7.4 at room temperature. All agents were bath-applied via the superfusing solution at the concentrations mentioned in the text. Recordings were obtained with glass suction electrodes (containing an Ag—AgCl pellet) filled with Krebs solution. Miniature bipolar suction electrodes were used in order to deliver single or repetitive electrical stimuli to DRs to evoke DR-DR potentials (DR-DRPs) (Kerkut and Bagust, 1995). Stimulus intensity was calculated in terms of threshold (Th), defined as the minimum intensity to elicit a detectable response in the homolateral VR.
Depolarizing action of GABA on the axons of primary afferents underlies primary afferents depolarization (PAD), that is a depolarizing response evoked by dorsal root stimulation in the neighboring dorsal root (Willis, 2006; Rudomin and Schmidt, 1999). Therefore, in the next experiments we have studied the effect of oxytocin on PAD in the in vitro isolated spinal cord preparations obtained from newborn rats.

[6] = target: T2, P2X3 receptor (Rattus norvegicus, UniProt P49654); experiment: Calcium imaging of α-β-meATP-evoked responses in DRG neurons; type: cell-based
T2 construct: endogenous in cells; host or cells: acutely dissociated primary sensory neurons (trigeminal ganglia per methods; called DRG neurons in results) from P0 rats
T2 sequence (P49654 1-397): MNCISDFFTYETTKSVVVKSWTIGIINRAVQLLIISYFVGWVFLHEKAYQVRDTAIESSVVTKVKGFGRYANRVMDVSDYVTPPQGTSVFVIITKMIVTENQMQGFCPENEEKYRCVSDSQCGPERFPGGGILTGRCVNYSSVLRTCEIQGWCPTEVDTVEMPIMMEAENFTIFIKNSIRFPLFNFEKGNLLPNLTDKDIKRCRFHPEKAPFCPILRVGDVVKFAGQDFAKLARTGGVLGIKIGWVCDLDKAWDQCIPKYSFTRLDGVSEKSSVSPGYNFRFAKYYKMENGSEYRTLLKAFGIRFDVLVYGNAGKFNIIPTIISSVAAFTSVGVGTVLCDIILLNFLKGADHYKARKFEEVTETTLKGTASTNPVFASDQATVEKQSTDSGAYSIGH

[7] = system: neonatal rats; experiment: Vocalization evoked by electrical stimulation of the whisker pad in decerebrated rat pups; type: in vivo
Procedure: Under isoflurane (1.5%) anaesthesia, rat pups were implanted with bipolar electrodes into the whisker pad and decerebrated at the upper pons level via a hole drilled 1 mm posterior to lambda using blunted 36 gouge needle, to avoid blood bleeding the hole was covered by cyanoacrylate after. After 10 min (P0) or one hour (P1-2 pups) of recovery period, the pups were wrapped by cotton and placed on the thermal blanket (38° C.). Whisker pad was stimulated by electrical train pulses (1 ms pulse duration, 5-25 V amplitude, 50 Hz, 1 minute inter-train interval). Vocalization response was recorded by microphone, digitized at 10 kHz using Digidata 1440 interface (Axon Instruments) and analyzed offline using Matlab (MathWorks, Natick, Mass.). To quantify the vocalization response, we calculated scalar integral (□) as following: (i) raw acustogram was converted to scalar acustogram by inverting all negative values to positive values; (ii) scalar acustogram was corrected for the baseline activity level by subtraction of the mean scalar acustogram value calculated during 1 minute before stimulation; (iii) scalar acustogram integral was calculated as cumulative, corrected for the baseline, scalar acustogram during 5 sec after stimulation.
In the experiments in vivo, Oxytocin (Sigma) 50 μM was injected at 0.1 ml/5 g (diluted in saline) IP, 30 min before testing. Bumetanide (Sigma) solution 25 μg/ml was injected IP at the dose of 5 μmol/kg, 30 min before testing. Atosiban (Sigma) (diluted in saline) was injected at 2 μg/kg, IP, 30 min before testing. SSR126768A (gift from Sanofi-Synthelabo) diluted in saline injected at 1 mg/kg IP, 30 min before testing. Sham injections in the control group were performed with equal volumes of saline.
In the second experiment, we studied oxytocin-modulation of the pain responses by measuring vocalization evoked by electrical stimulation of the whisker pad. Animals were decerebrated at caudal midbrain levels to cut the descending oxytocin projections from the VPN to spinal cord and to prevent noxious input to the brain. Electrical stimulation of the whisker pad evoked vocalization in the neonatal rats despite of decerebration. Vocalizing response was composed of several bursts with a dominant frequency in the range from 2.7 to 5 kHz (mean frequency 3.9±0.1 kHz n=24, rat P0-2). To quantify vocalization response, we calculated scalar acusticogram integral. In agreement with the results of the thermal tail-flick assay, oxytocin receptor blocker atosiban (2 μg/kg) increased vocalization response in the fresh newborn P0 rats (to 155±28%, n=8, p=0.0003;). […]

[8] = newborn rats, drug alone (oxytocin 1 μM; atosiban 10 μM)
[9] = recordings between 12 and 24 hours after birth, atosiban 10 μM, oxytocin

T1 sequence (O35433 whole entry): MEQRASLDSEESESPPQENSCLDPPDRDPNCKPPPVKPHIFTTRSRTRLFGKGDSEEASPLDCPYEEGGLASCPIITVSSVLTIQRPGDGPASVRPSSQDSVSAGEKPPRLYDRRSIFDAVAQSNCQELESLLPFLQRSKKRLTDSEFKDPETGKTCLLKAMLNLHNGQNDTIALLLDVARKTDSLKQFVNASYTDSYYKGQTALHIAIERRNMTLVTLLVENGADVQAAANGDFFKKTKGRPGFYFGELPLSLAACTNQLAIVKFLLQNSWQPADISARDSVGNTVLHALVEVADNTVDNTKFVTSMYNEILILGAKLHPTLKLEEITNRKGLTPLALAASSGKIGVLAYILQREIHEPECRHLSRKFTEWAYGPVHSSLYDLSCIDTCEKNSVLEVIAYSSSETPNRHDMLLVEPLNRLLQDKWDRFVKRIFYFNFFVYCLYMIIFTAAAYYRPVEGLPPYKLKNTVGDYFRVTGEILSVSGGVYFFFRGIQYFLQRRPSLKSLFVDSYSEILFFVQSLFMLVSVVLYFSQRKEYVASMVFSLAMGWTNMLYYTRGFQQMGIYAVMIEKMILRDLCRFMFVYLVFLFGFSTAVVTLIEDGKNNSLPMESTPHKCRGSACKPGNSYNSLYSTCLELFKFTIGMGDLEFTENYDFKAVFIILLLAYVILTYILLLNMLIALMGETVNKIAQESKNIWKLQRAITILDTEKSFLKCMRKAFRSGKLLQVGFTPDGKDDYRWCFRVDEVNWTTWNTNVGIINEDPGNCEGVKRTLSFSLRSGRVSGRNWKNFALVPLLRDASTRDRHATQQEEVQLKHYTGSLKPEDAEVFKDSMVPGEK

Structure (SMILES) | reversal of the effect of oxytocin receptor blockers on tail-flick [3] | GABA-evoked intracellular calcium increases [4] | peak of DR-DRPs, % of control [5, 8] [%] | peak of DR-DRPs, % of control [5, 9] [%] | vocalization response (scalar acusticogram integral) ([7]; P1-2 rats, drug alone) [%] | change in tail withdrawal delay [3] | change in tail-flick delays [3] | further results
CC[C@H](C)[C@@H]1NC(=O)[C@H](Cc2ccc(O)cc2)NC(=O)[C@@H](N)CSSC[C@@H](C(=O)N2CCC[C@H]2C(=O)N[C@@H](CC(C)C)C(=O)NCC(N)=O)NC(=O)[C@H](CC(N)=O)NC(=O)[C@H](CCC(N)=O)NC1=O [oxytocin] | partially reverse the effects of the competitive oxytocin receptor blockers | significantly reduced GABA-evoked calcium increases | 93.6±5.6 | 77.8±21.6 | 41±12 | – | – | GABA driving force (DFGABA) [1]: 17.7±6.7 mV; amplitude of capsaicin (200 nM) evoked Ca2+ responses ([2]; 1 μM-OT for 20-30 min): did not significantly change the amplitude; analgesic effect in tail-flick test ([3]; exogenous oxytocin 1 μg/kg systemic, newborn and P2 rats): dramatic analgesic effect; duration of slow transient responses induced by the drug ([4]; not shown): 60 to 80 s; amplitude of α-β-meATP (10 μM) evoked Ca2+ responses ([6]; 1 μM-OT for 20-30 min): did not significantly change the amplitude
Nc1ncnc2c1ncn2[C@@H]1O[C@H](COP(=O)(O)CP(=O)(O)OP(=O)(O)O)[C@@H](O)[C@H]1O [α-β-methylenATP] | – | – | – | – | – | – | – | Ca2+ response evoked by agonist ([6]; 10 μM, 2 s pulses at 10 min intervals): evoked transient, and quite stable Ca2+ increases
CCOc1ccc(C[C@H]2NC(=O)CCSSC[C@@H](C(=O)N3CCC[C@H]3C(=O)N[C@@H](CCCN)C(=O)NCC(N)=O)NC(=O)[C@H](CC(N)=O)NC(=O)[C@H]([C@@H](C)O)NC(=O)[C@H]([C@@H](C)CC)NC2=O)cc1 [atosiban] ([Mpa][dY](Et)ITNCP[Orn]G-NH2; disulfide 1-6) | – | – | 112.7±9.1 | 90.0±9.8 | – | nearly three-fold acceleration in the tail withdrawal | did not significantly modify the tail-flick delays | peak of DR-DRPs, % of control ([5]; atosiban 10 μM added to oxytocin 1 μM): 106.0±20.8%; vocalization response (scalar acusticogram integral) ([7]; P0 rats, atosiban 2 μg/kg): 155±28%; vocalization response, from control level ([7]; P1-2 rats, atosiban on top of exogenous oxytocin): 84±38%
CCN(Cc1cccnc1)C(=O)c1ccc(Cl)c([C@]2(C)C(=O)N(Cc3ccc(OC)cc3OC)c3ccc(Cl)cc32)c1 [SSR126768A] | – | – | – | – | – | nearly three-fold acceleration in the tail withdrawal | did not significantly modify the tail-flick delays | –
COc1cc(CNC(=O)CCCC/C=C/C(C)C)ccc1O [capsaicin] | – | – | – | – | – | – | – | Ca2+ response evoked by agonist ([2]; 200 nM, 2 s pulses at 10 min intervals): evoked transient, and quite stable Ca2+ increases
CCCCNc1cc(C(=O)O)cc(S(N)(=O)=O)c1Oc1ccccc1 [bumetanide] | reversed the effect of oxytocin receptor blockers | suppressed the GABA receptor mediated increases in intracellular calcium | – | – | 72±16 | – | – | tail-flick responses ([3]; bumetanide 10 μM/kg, both age groups (P0 and P2)): strongly delayed the tail-flick responses; peak of DR-DRPs, % with respect to control values ([5]; bumetamide 20 μM added to atosiban 10 μM): 66.6±13.8%
